Source: patent publication US8435978B2, “Substituted sulfonamide compounds” (Gruenenthal GmbH, priority 2006, dated 2013)

Experiments:
[1] = target: T1, human B1R receptor (Homo sapiens, UniProt P46663); assay: Functional study on the bradykinin receptor 1 (B1R), FLIPR Ca2+ assay, hB1R cells; type: cell-based; conditions: CHO-K1, test substance 10 μM, agonist Lys-Des-Arg9-bradykinin 0.5 nM, % inhibition compared with the maximum achievable inhibition, read-out: B1R Antagonism, human [10 μM] % Inhibition
T1 construct: host or cells: CHO K1 cells (Chinese hamster ovary), stably transfected
T1 sequence (P46663 1-353): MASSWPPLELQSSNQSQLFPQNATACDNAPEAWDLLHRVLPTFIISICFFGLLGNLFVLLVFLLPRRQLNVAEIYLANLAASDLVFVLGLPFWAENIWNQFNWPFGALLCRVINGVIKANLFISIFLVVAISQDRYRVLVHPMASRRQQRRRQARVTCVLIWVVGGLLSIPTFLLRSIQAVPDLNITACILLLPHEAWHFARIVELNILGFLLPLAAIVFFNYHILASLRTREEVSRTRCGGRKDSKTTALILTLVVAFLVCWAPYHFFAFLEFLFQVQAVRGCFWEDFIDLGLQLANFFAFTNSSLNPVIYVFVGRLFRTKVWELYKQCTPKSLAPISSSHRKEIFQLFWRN
Procedure, shortened: (§1)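 CHO K1 cells stably expressing human or rat B1R were loaded with Fluo-4 and read on a FLIPR (ex 488/em 540 nm, peak fluorescence). Test compounds at 10 μM were added first, then after 10 min agonist: Lys-Des-Arg9-bradykinin 0.5 nM for hB1R, Des-Arg9-bradykinin 100 nM for rB1R; % inhibition versus maximum inhibition.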

[2] = target: T2, B1R receptor of the rat (Rattus norvegicus, UniProt P97583); assay: Functional study on the bradykinin receptor 1 (B1R), FLIPR Ca2+ assay, rB1R cells; type: cell-based; conditions: CHO-K1, test substance 10 μM, agonist Des-Arg9-bradykinin 100 nM, % inhibition compared with the maximum achievable inhibition, read-out: B1R Antagonism, rat [10 μM] % Inhibition
T2 construct: host or cells: CHO K1 cells (Chinese hamster ovary), stably transfected
T2 sequence (P97583 1-337): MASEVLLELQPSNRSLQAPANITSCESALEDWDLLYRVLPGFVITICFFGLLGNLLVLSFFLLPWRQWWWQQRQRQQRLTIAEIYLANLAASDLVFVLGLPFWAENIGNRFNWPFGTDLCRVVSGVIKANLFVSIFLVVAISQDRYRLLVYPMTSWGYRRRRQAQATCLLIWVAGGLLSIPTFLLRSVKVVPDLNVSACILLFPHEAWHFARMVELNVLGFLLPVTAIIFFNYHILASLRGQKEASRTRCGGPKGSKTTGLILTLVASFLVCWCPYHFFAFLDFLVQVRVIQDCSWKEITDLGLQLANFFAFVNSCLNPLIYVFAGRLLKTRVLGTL
Procedure, shortened: as §1

[3] = system: formalin-induced pain behavior; assay: Formalin test in the mouse (phase 2, chronic pain component); type: in vivo; conditions: iv, 5 min. before formalin injection, observation 21 to 24 minutes after formalin
Description: The formalin test (Dubuisson, D. and Dennis, S. G., 1977, Pain, 4, 161-174) represents a model for both acute and chronic pain. By means of a single formalin injection into the dorsal side of a rear paw, a biphasic nociceptive reaction is induced in freely mobile test animals; the reaction is detected by observing three behaviour patterns which are clearly distinguishable from one another. The reaction is two-phase: phase 1=immediate reaction (duration up to 10 min., shaking of the paw, licking), phase 2=late reaction (after a rest phase; likewise shaking of the paw, licking; duration up to 60 min.). The 1st phase reflects a direct stimulation of the peripheral nocisensors with high spinal nociceptive input (acute pain phase); the 2nd phase reflects a spinal and peripheral hypersensitization (chronic pain phase). In the studies described here, the chronic pain component (phase 2) has been evaluated. Formalin in a volume of 20 μl and a concentration of 1% is administered subcutaneously into the dorsal side of the right rear paw of each animal. The specific changes in behavior, such as lifting, shaking or licking of the paw (score 3, Dubuisson & Dennis, 1977), are observed and recorded in the observation period of 21 to 24 minutes following the formalin injection. The behaviour of the animals after administration of the substance (n=10 per dose of substance) was compared with a control group which received vehicle (n=10). Based on the quantification of the pain behavior, the action of the substance in the formalin test was determined as the change in percent compared with the control. The ED50 calculations (ED50=mean effective dose) were carried out by regression analysis according to the method of Litchfield and Wilcoxon (Litchfield, J. T., Wilcoxon, J. J., 1949, J. Pharmacol. Exp. Ther. 96, 99-113). The time of administration before the formalin injection was chosen in dependence on the mode of administration of the compounds according to the invention (intravenous: 5 min.).

inhibition at 10 µM [1] [%]	inhibition at 10 µM [2] [%]	Structure (SMILES)	ED50 [3] [mg/kg]
104	101	COc1cc(C)c(S(=O)(=O)N2CCCCC2COCC(=O)N2CCC(N3CCN4CCCCC4C3)CC2)c(C)c1 (stereo not drawn) [Example 98, 1-(4-(dihydro-1H-pyrido[1,2-a]pyrazin-2(6H,7H,8H,9H,9aH)-yl)piperidin-1-yl)-2-((1-(4-methoxy-2,6-dimethylphenylsulfonyl)piperidin-2-yl)methoxy)ethanone]	13.6
105	98.5	COc1cc(C)c(S(=O)(=O)N2CCC[C@H]2COCC(=O)N2CCN(CC3CCN(C)CC3)CC2)c(C)c1 [Example 181, (S)-2-((1-(4-methoxy-2,6-dimethylphenylsulfonyl)pyrrolidin-2-yl)methoxy)-1-(4-((1-methylpiperidin-4-yl)methyl)piperazin-1-yl)ethanone]	
101	89.2	Cc1ccc(C)n1CCN1CCN(C(=O)COCC2CCCN2S(=O)(=O)c2c(Cl)cccc2Cl)CC1 (stereo not drawn) [Example 287, 2-((1-(2,6-dichlorophenylsulfonyl)pyrrolidin-2-yl)methoxy)-1-(4-(2-(2,5-dimethyl-1H-pyrrol-1-yl)ethyl)piperazin-1-yl)ethanone]	

Further lines, the compound ahead of its results:

Structure (SMILES)	inhibition at 10 µM [1] [%]	inhibition at 10 µM [2] [%]	ED50 [3] [mg/kg]
COc1cc(C)c(S(=O)(=O)N2CCCCC2COCC(=O)N2CCN(C3CCN(C)CC3)CC2)c(C)c1.Cl.Cl (stereo not drawn) [Example 97, 2-((1-(4-methoxy-2,6-dimethylphenylsulfonyl)piperidin-2-yl)methoxy)-1-(4-(1-methylpiperidin-4-yl)piperazin-1-yl)ethanone dihydrochloride]	98	98.2	13.3
COc1cc(C)c(S(=O)(=O)N2CCCCC2COCC(=O)N(C)Cc2ccc(C3=NCCN3)cc2)c(C)c1.Cl (stereo not drawn) [Example 193, N-(4-(4,5-dihydro-1H-imidazol-2-yl)benzyl)-2-((1-(4-methoxy-2,6-dimethylphenylsulfonyl)piperidin-2-yl)methoxy)-N-methylacetamide hydrochloride]	104	98.3	2.59
COc1cc(C)c(S(=O)(=O)N2CCCC2COCC(=O)N2CCCC2Cc2cccc(C)n2)c(C)c1 (stereo not drawn) [Example 448, 2-((1-(4-methoxy-2,6-dimethylphenylsulfonyl)pyrrolidin-2-yl)methoxy)-1-(2-((6-methylpyridin-2-yl)methyl)pyrrolidin-1-yl)ethanone]	85.8	99.8	
